Measured values from patent US8557823B2, “Family of PFKFB3 inhibitors with anti-neoplastic activities” (Advanced Cancer Therapeutics, LLC, priority 2007, dated 2013).

How the values were obtained:
[1] = system: NHBE-ht/LT/ras cells; assay: In vitro growth inhibition, transformed NHBE cells; assay type: cell-based, human
Procedure: The K562, HL-60, MDA-MB231, and melanoma (CRL-11174) human cancer cell lines were purchased from ATCC (American Tissue Type Culture Collection, Manassas, Va., United States of America). HeLa, A549, Lewis Lung Carcinoma, MDA-MB231, and melanoma cells were grown in Dulbecco's Modified Eagle Medium (DMEM) (Hyclone, Logan, Utah, United States of America) supplemented with 10% fetal bovine serum (Hyclone, Logan, Utah, United States of America) and 50 μg/mL gentamicin sulfate (Invitrogen, Carlsbad, Calif., United States of America). The HL-60, K562, and Jurkat cell lines were grown in RPMI-1640 medium (Hyclone, Logan, Utah, United States of America) supplemented with 10% fetal bovine serum and 50 μg/mL gentamicin sulfate. The primary Normal Human Bronchial Epithelial (NHBE) cells and cells that were immortalized with human telomerase (ht) and large T antigen (LT) and transformed with mutated ras (ht/LT/ras cells) were cultured in Bronchial Epithelial Cell Basal Growth Medium (Cambrex, Walkersville, Md., United States of America) supplemented with 52 μg/mL bovine pituitary extract, 0.5 μg/mL hydrocortisone, […], 0.5 μg/mL epinephrine, 10 μg/mL transferrin, 5 μg/mL insulin, 0.1 ng/mL retinoic acid, 6.5 ng/mL triiodothyronine, 50 μg/mL gentamycin, and 50 ng/mL amphotericin-B (SingleQuots, Cambrex, Walkersville, Md., United States of America). All cell lines were maintained under 5% CO2 at 37° C.
All cell lines were plated at 1×10^5 cells/well in the appropriate medium. For suspension cells, increasing concentrations of 1 were added immediately to the medium, whereas, compound 1 treatment was initiated the following day for adherent cell lines. For dose-dependent studies, compound 1 was added in increasing concentrations for 36 hours. For time-dependent studies, 10 μM of compound 1 was added at time 0, 4, 8, 16, 24, or 36 hours. […]
(§1) Cells were collected 48 hours post-treatment, and cell number and viability were determined by trypan blue exclusion. […]

[2] = system: MDA-MB231 breast adenocarcinoma cells; assay: In vitro growth inhibition, MDA-MB231; assay type: cell-based; conditions: Homo sapiens, MDA-MB-231
Procedure: The K562, HL-60, MDA-MB231, and melanoma (CRL-11174) human cancer cell lines were purchased from ATCC (American Tissue Type Culture Collection, Manassas, Va., United States of America). HeLa, A549, Lewis Lung Carcinoma, MDA-MB231, and melanoma cells were grown in Dulbecco's Modified Eagle Medium (DMEM) (Hyclone, Logan, Utah, United States of America) supplemented with 10% fetal bovine serum (Hyclone, Logan, Utah, United States of America) and 50 μg/mL gentamicin sulfate (Invitrogen, Carlsbad, Calif., United States of America). The HL-60, K562, and Jurkat cell lines were grown in RPMI-1640 medium (Hyclone, Logan, Utah, United States of America) supplemented with 10% fetal bovine serum and 50 μg/mL gentamicin sulfate. […]
as §1

[3] = system: MDA-MB231 human breast adenocarcinoma tumors; assay: MDA-MB231 breast adenocarcinoma xenografts in Balb/c nude mice; assay type: in vivo; conditions: 0.07 mg/g IP, three daily injections followed by three days off
Procedure: FIG. 7B is a graph showing the effects of 3PO treatment on the growth of established MDA-MB231 breast adenocarcinoma tumor zenografts in Balb/c athymic mice. Tumors were measured daily using blunt end Vernier calipers, and mice with established tumors (130-190 mg) were blindly randomized into either a DMSO control group (•, n=14) or a 3PO treatment group (∘, n=13). Experimental mice were weighed and given intraperitoneal (i.p.) injections of either 50 μL DMSO or 0.07 mg/g 3PO in 50 μL DMSO according to a cyclical dosing regimen of three sequential daily injections followed by three off days for the duration of the study (14 days). Arrows (↓) represent control or 3PO administrations. […]
Exponentially growing MDA-MB231 and HL-60 cells were collected in appropriate medium, washed twice and resuspended in PBS at a concentration of 20×10^7 cells/mL. […] Body weight and tumor growth were monitored daily throughout the study. Tumor masses were determined by measurement with Vernier calipers using the formula: mass (mg)=[width (mm^2)×length (mm)]/2. […]
The first tumor model tested consisted of mouse Lewis Lung Carcinoma xenografts grown in C57/Blk6 mice. For this study, mice were given IP injections of either DMSO or the calculated dose of 1 once daily for the duration of the study (14 days). […]

## O=C(/C=C/c1cccnc1)c1ccncc1 [Compound 1, 3-(3-pyridinyl)-1-(4-pyridinyl)-2-propen-1-one]
[1]; Homo sapiens, NHBE, 48 h
  IC50: 1.5 µM
[1]; transformed NHBE cells
  concentration at which treatment was completely cytotoxic: approximately 10 μM
  concentration at which treatment was cytostatic: below 1 μM
[2]
  IC50: 4.7 µM
[3]
  maximum inhibition of xenograft growth compared to DMSO controls: 66%
